# Literature values in patent US20070141150A1, “Pharmaceutical composition” (priority 2003, published 2007).
# Where a name gives a salt, the structure may show the parent alone.
# Details: interaction between propranolol and the polyanionic methacrylic acid copolymer
compound,measurement,value
"CC(C)NCC(O)COc1cccc2ccccc12 (stereo not shown) [propranolol, propranolol hydrochloride]",Hill coefficient,1.5
